Source: US20240238424A1, “HETEROBIFUNCTIONAL COMPOUNDS AND METHODS OF TREATING DISEASE” (Halda Therapeutics OpCo, Inc., priority 2021, published 2024)

Key:
GSPT1 = target: T1, GSPT1 (Homo sapiens, UniProt P15170+Q96SW2); experiment: GSPT1 HiBit degradation assay; format: cell-based; conditions: Table 3; HEK293 LgBiT cells expressing GSPT1_HiBiT, luminescence after 6 hours
T1 construct: host or cells: HEK293 LgBiT cell line
In short: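 HEK293 cells stably expressing LgBiT and GSPT1-HiBiT, seeded 18-24 h before dosing, were treated with titrated compound plus endurazine (0.5× final) at 37 °C. Luminescence loss after 6 h reflects GSPT1 degradation; DC50 is the concentration giving 50% degradation.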

HeLa KRas G12C cells = experiment: Cellular growth inhibition assay (CTG), HeLa KRas G12C cells; format: cell-based; conditions: Homo sapiens, CellTiter-Glo 2.0, day-5
Description: Cells were seeded in Poly-D-lysine-treated 384-well white plates, with 25 μL cell suspension at 250 cells/well for continuous treatments, and 1000 cells/well for washout treatments. Plates were spun at 300×g for 3 minutes, and cells were cultured at 37° C. with 5% CO2 in a humidified tissue culture incubator.
After 24 hours, the test compounds were diluted with cell culture medium in 96 deep well plates. DMSO was used as a negative control. A 25 μL aliquot of compound-containing medium was added in each well, at a final top concentration of 10 μM or 30 μM test compound, with 3-fold dilutions. For washout assays, after 4 hours, cell medium with compound was removed, and the cells were washed with 75p L fresh medium. Plates were then spun at 300×g for 3 minutes and replaced with 50 μL fresh medium in each well. Plates were then spun at 300×g for 3 minutes again and cultured at 37° C. with 5% CO2.
At day-0 and day-5 of compound treatments, cell viability was quantified with CellTiter-Glo 2.0 (Promega). After equilibrating cell plates at room temperature for 30 minutes, 25 μL CellTiter-Glo 2.0 reagent was dispensed into each well (on top of 50 μL of cell culture). Plates were mixed on a shaker for 2 minutes at 500 rpm, followed by a 10-minute incubation at room temperature. Luminescence readings were measured with an EnVision Plate Reader. Data was normalized to DMSO treated day-0 cell wells. A four-parameter non-linear regression curve fit was applied to dose-response data in Prism to determine the half maximal growth inhibitory concentration (GI50) of each compound.

T1 sequence (P15170 whole entry): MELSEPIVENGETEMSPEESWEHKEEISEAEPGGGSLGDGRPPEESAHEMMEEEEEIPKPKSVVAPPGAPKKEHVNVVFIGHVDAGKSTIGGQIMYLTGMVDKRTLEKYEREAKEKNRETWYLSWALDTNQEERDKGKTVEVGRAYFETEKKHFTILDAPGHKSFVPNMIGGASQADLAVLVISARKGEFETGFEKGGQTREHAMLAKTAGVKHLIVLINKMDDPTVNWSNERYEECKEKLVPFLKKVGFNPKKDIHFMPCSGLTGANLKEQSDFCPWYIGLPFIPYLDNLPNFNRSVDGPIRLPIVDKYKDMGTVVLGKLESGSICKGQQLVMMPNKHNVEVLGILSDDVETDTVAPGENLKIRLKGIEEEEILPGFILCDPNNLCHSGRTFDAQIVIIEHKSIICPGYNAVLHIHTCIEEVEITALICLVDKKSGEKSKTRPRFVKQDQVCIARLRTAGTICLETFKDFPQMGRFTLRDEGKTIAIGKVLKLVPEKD
T1 sequence (Q96SW2 whole entry): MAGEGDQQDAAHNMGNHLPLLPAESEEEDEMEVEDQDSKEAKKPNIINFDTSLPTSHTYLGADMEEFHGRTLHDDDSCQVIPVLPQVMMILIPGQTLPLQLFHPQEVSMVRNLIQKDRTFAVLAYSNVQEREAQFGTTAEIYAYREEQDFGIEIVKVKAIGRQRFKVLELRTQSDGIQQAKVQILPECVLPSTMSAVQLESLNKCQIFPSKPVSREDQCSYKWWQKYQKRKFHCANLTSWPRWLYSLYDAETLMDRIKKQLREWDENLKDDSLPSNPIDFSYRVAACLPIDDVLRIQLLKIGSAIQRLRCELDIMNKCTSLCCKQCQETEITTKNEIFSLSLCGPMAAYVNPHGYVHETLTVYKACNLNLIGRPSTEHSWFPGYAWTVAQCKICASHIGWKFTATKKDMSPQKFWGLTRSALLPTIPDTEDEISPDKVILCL
T1 sequence (Q16531 whole entry partner): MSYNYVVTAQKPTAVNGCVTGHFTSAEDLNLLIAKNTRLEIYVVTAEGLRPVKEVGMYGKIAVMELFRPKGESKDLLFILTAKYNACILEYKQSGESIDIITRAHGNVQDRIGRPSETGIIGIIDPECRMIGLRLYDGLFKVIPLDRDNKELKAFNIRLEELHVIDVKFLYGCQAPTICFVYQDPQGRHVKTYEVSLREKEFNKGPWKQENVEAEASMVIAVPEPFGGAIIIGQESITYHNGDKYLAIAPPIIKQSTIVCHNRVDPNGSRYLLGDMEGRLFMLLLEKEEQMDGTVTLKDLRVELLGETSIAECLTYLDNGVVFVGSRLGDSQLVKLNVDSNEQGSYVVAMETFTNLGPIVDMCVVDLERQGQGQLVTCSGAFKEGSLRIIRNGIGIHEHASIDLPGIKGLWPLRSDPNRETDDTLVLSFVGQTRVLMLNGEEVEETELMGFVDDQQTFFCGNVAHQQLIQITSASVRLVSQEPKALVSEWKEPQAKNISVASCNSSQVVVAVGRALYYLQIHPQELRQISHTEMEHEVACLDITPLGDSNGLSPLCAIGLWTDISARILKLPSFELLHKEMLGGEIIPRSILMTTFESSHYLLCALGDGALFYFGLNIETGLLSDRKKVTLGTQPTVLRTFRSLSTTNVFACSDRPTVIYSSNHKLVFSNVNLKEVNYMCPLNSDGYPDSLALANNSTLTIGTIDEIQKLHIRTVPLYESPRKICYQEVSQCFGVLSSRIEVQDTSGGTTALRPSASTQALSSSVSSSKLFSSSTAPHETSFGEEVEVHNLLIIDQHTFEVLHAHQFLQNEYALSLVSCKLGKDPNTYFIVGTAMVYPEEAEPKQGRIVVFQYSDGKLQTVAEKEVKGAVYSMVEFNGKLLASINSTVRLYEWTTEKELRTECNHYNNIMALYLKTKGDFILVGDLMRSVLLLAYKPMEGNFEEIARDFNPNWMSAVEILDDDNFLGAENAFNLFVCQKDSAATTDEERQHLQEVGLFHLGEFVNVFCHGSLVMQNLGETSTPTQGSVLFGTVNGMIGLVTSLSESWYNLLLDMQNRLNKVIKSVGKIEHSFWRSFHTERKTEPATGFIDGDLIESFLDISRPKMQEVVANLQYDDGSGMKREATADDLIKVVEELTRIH

| Structure (SMILES) | DC50 (GSPT1) [nM] | GI50 (HeLa KRas G12C cells) [nM] |
| --- | --- | --- |
| C=CC(=O)N1CCN(c2nc(NCCOCCOCCOCCOCCOCCOCCOCCOCCOCCOCCc3cc(Cl)cc(NC(=O)NCc4ccc5c(c4)CN(C4CCC(=O)NC4=O)C5=O)c3)nc3c(F)c(-c4cc(O)cc5ccccc45)c(Cl)cc23)CC1 (stereo not shown) [Compound I-16, 1-[3-chloro-5-[2-[2-[2-[2-[2-[2-[2-[2-[2-[2-[2-[[6-chloro-8-fluoro-7-(3-hydroxy-1-naphthyl)-4-(4-prop-2-enoylpiperazin-1-yl)quinazolin-2-yl]amino]ethoxy]ethoxy]ethoxy]ethoxy]ethoxy]ethoxy]ethoxy]ethoxy]ethoxy]ethoxy]ethyl]phenyl]-3-[[2-(2,6-dioxo-3-piperidyl)-1-oxo-isoindolin-5-yl]methyl]urea] | > 10000 | > 10000 |
| C=CC(=O)N1CCN(c2nc(NCCC(=O)N(C)CCOCCOCCOCCOCCOCCOCCc3cc(Cl)cc(NC(=O)NCc4ccc5c(c4)CN(C4CCC(=O)NC4=O)C5=O)c3)nc3c(F)c(-c4cc(O)cc5ccccc45)c(Cl)cc23)CC1 (stereo not shown) [Compound I-17] | > 10000 | > 10000 |
| C=CC(=O)N1CCN(c2nc(NCCC(=O)N(C)CCOCCOCCOCCOCCOCCOCCOCCOCCc3cc(Cl)cc(NC(=O)NCc4ccc5c(c4)CN(C4CCC(=O)NC4=O)C5=O)c3)nc3c(F)c(-c4cc(O)cc5ccccc45)c(Cl)cc23)CC1 (stereo not shown) [Compound I-18, N-[2-[2-[2-[2-[2-[2-[2-[2-[2-[3-chloro-5-[[2-(2,6-dioxo-3-piperidyl)-1-oxo-isoindolin-5-yl]methylcarbamoylamino]phenyl]ethoxy]ethoxy]ethoxy]ethoxy]ethoxy]ethoxy]ethoxy]ethoxy]ethyl]-3-[[6-chloro-8-fluoro-7-(3-hydroxy-1-naphthyl)-4-(4-prop-2-enoylpiperazin-1-yl)quinazolin-2-yl]amino]-N-methyl-propanamide] | > 10000 | > 10000 |
| C=C(F)C(=O)N1CCN(c2nc(OC[C@@H]3CCCN3CCOCCOCCOCCOCCOCCOCCOCCOCCOCCOCCOCCOCCc3cc(Cl)cc(NC(=O)NCc4ccc5c(c4)CN(C4CCC(=O)NC4=O)C5=O)c3)nc3c2CCN(c2cccc4cccc(Cl)c24)C3)C[C@@H]1CC#N (stereo partly shown) [Compound I-37] | 250 to 5000 | > 10000 |
| C=C(F)C(=O)N1CCN(c2nc(OC[C@@H]3CCCN3CCOCCOCCOCCOCCOCCOCCOCCOCCCCCCCCc3cc(Cl)cc(NC(=O)NCc4ccc5c(c4)CN(C4CCC(=O)NC4=O)C5=O)c3)nc3c2CCN(c2cccc4cccc(Cl)c24)C3)C[C@@H]1CC#N (stereo partly shown) [Compound I-38] | < 250 | < 1000 |
| C=C(F)C(=O)N1CCN(c2nc(OC[C@H]3CCCN3CCOCCOCCOCCOCCOCCOCCOCCOCCOCCOCCCCCCCCc3cc(Cl)cc(NC(=O)NCc4ccc5c(c4)CN(C4CCC(=O)NC4=O)C5=O)c3)nc3c2CCN(c2cccc4cccc(Cl)c24)C3)C[C@H]1CC#N (stereo partly shown) [Compound I-39] | < 250 | < 1000 |
| C=C(F)C(=O)N1CCN(c2nc(OC[C@@H]3CCCN3CCOCCOCCOCCOCCCCCCCCc3cc(Cl)cc(NC(=O)NCc4ccc5c(c4)CN(C4CCC(=O)NC4=O)C5=O)c3)nc3c2CCN(c2cccc4cccc(Cl)c24)C3)C[C@@H]1CC#N (stereo partly shown) [Compound I-40] | < 250 | < 1000 |
| C=C(F)C(=O)N1CCN(c2nc(OC[C@@H]3CCCN3CCOCCOCCOCCOCCOCCOCCCCCCCCc3cc(Cl)cc(NC(=O)NCc4ccc5c(c4)CN(C4CCC(=O)NC4=O)C5=O)c3)nc3c2CCN(c2cccc4cccc(Cl)c24)C3)C[C@@H]1CC#N (stereo partly shown) [Compound I-41] | < 250 | < 1000 |
| C=C(F)C(=O)N1CCN(c2nc(OC[C@@H]3CCCN3CCOCCOCCOCCOCCOCCOCCOCCOCCOCCOCCOCCOCCOc3cc(Cl)cc(NC(=O)NCc4ccc5c(c4)CN(C4CCC(=O)NC4=O)C5=O)c3)nc3c2CCN(c2cccc4cccc(Cl)c24)C3)C[C@@H]1CC#N (stereo partly shown) [Compound I-42] | > 10000 | > 10000 |
| C=C(F)C(=O)N1CCN(c2nc(OC[C@@H]3CCCN3CCOCCOCCOCCOCCOCCOCCOCCCCCc3cc(Cl)cc(NC(=O)NCc4ccc5c(c4)CN(C4CCC(=O)NC4=O)C5=O)c3)nc3c2CCN(c2cccc4cccc(Cl)c24)C3)C[C@@H]1CC#N (stereo partly shown) [Compound I-43] | 250 to 5000 | 1000 to 3000 |
| C=C(F)C(=O)N1CCN(c2nc(OC[C@@H]3CCCN3CCOCCOCCOCCOCCOCCOCCOCCOCCOCCCCCc3cc(Cl)cc(NC(=O)NCc4ccc5c(c4)CN(C4CCC(=O)NC4=O)C5=O)c3)nc3c2CCN(c2cccc4cccc(Cl)c24)C3)C[C@@H]1CC#N (stereo partly shown) [Compound I-44] | 250 to 5000 | 1000 to 3000 |
| C=C(F)C(=O)N1CCN(c2nc(OC[C@@H]3CCCN3CCOCCOCCOCCOCCOCCOCCOCCOCCOCCOCCOCCOCCCCCCCCc3cc(Cl)cc(NC(=O)NCc4ccc5c(c4)CN(C4CCC(=O)NC4=O)C5=O)c3)nc3c2CCN(c2cccc4cccc(Cl)c24)C3)C[C@@H]1CC#N (stereo partly shown) [Compound I-46] | < 250 | < 1000 |
| C=C(F)C(=O)N1CCN(c2nc(OC[C@@H]3CCCN3CCOCCOCCOCCOCCOCCOCCOCCOCCOCCOCCOCCOCCOCCOCCCCCCCCc3cc(Cl)cc(NC(=O)NCc4ccc5c(c4)CN(C4CCC(=O)NC4=O)C5=O)c3)nc3c2CCN(c2cccc4cccc(Cl)c24)C3)C[C@@H]1CC#N (stereo partly shown) [Compound I-47] | < 250 | < 1000 |
| C=C(F)C(=O)N1CCN(c2nc(OC[C@@H]3CCCN3CCOCCOCCCCCCCCCCCCCCc3cc(Cl)cc(NC(=O)NCc4ccc5c(c4)CN(C4CCC(=O)NC4=O)C5=O)c3)nc3c2CCN(c2cccc4cccc(Cl)c24)C3)C[C@@H]1CC#N (stereo partly shown) [Compound I-48] | 250 to 5000 | 3000 to 10000 |
| C=C(F)C(=O)N1CCN(c2nc(OC[C@@H]3CCCN3CCOCCOCCOCCOCCCCCCCCCCCCCCc3cc(Cl)cc(NC(=O)NCc4ccc5c(c4)CN(C4CCC(=O)NC4=O)C5=O)c3)nc3c2CCN(c2cccc4cccc(Cl)c24)C3)C[C@@H]1CC#N (stereo partly shown) [Compound I-49] | 250 to 5000 | > 10000 |
| C=C(F)C(=O)N1CCN(c2nc(OC[C@@H]3CCCN3CCOCCOCCOCCOCCOCCOCCCCCCCCCCCCCCc3cc(Cl)cc(NC(=O)NCc4ccc5c(c4)CN(C4CCC(=O)NC4=O)C5=O)c3)nc3c2CCN(c2cccc4cccc(Cl)c24)C3)C[C@@H]1CC#N (stereo partly shown) [Compound I-50] | 250 to 5000 | < 1000 |
| C=C(F)C(=O)N1CCN(c2nc(OC[C@@H]3CCCN3CCOCCOCCOCCOCCOCCOCCOCCOCCCCCCCCCCCCCCc3cc(Cl)cc(NC(=O)NCc4ccc5c(c4)CN(C4CCC(=O)NC4=O)C5=O)c3)nc3c2CCN(c2cccc4cccc(Cl)c24)C3)C[C@@H]1CC#N (stereo partly shown) [Compound I-51] | 250 to 5000 | < 1000 |
| C=C(F)C(=O)N1CCN(c2nc(OC[C@@H]3CCCN3CCOCCOCCOCCOCCOCCOCCOCCOCCOCCOCCCCCCCCCCCCCCc3cc(Cl)cc(NC(=O)NCc4ccc5c(c4)CN(C4CCC(=O)NC4=O)C5=O)c3)nc3c2CCN(c2cccc4cccc(Cl)c24)C3)C[C@@H]1CC#N (stereo partly shown) [Compound I-52] | 250 to 5000 | < 1000 |
| C=C(F)C(=O)N1CCN(c2nc(OC[C@@H]3CCCN3CCOCCOCCOCCOCCOCCOCCOCCOCCOCCOCCOCCOCCCCCCCCCCCCCCc3cc(Cl)cc(NC(=O)NCc4ccc5c(c4)CN(C4CCC(=O)NC4=O)C5=O)c3)nc3c2CCN(c2cccc4cccc(Cl)c24)C3)C[C@@H]1CC#N (stereo partly shown) [Compound I-53] | < 250 | < 1000 |
| C=C(F)C(=O)N1CCN(c2nc(OC[C@@H]3CCCN3CCOCCOCCOCCOCCOCCCCCc3cc(Cl)cc(NC(=O)NCc4ccc5c(c4)CN(C4CCC(=O)NC4=O)C5=O)c3)nc3c2CCN(c2cccc4cccc(Cl)c24)C3)C[C@@H]1CC#N (stereo partly shown) [Compound I-54] | 250 to 5000 | < 1000 |
